# Measurements as given in patent publication US20120196927A1, “PROPHYLACTIC AND/OR THERAPEUTIC AGENT FOR METABOLIC SYNDROME” (priority 2009, published 2012).
# Columns and labels:
# [1] = system: GLUT4, Adiponectin, TNF-α, MCP-1, IL-6, PPARγ, aP2, LPL, Perilipin genes; assay: Diabetes model mice: mRNA expression in the white adipose tissue (real time RT-PCR); assay type: in vivo, mouse; details: ob/ob mice, Vehicle = 1.00, nobiletin 200 mg/kg/day, Pioglitazone 30 mg/kg/day, 5 weeks
# Method: (§1) The effects by nobiletin ingestion to the mRNA expression in the white adipose tissue and the liver were measured (n=10).
# (§2) After the termination of the administration period for 5 weeks, mRNA expression levels of respective genes shown in the table 10 were determined by using real time RT-PCR method. The real time RT-PCR was carried out according to an operation manual provided by ISOGEN (NIPPON GENE CO., LTD); RNA was extracted from the white adipose tissue and the liver. Next, cDNA was prepared from using 1 μg of RNA by using Reverse Transcription System kit (Promega Corp., USA). Next, suitable primers for the above-mentioned genes were prepared according to the operation manual provided by FastStart universal SYBR (a registered trademark) Greenmaster PCR KIT agent (Roche Diagnostics K. K., Germany).
# (§3) Real time PCR system 7700HT (Applied Biosytems, USA) was used for the determination to carry out the real time PCR by using the cDNAs as templates. Each reaction conditions were set according to the manual of the PCR KIT. Quantitative analysis of the RNA amount was carried out based on comparative Ct method by using glyceraldehyde 3-phosphate dehydrogenase (GAPDH) as the standard reference.
# C57BL/6J-ob/ob mice [2] = assay: Diabetes model mice: fasting blood glucose level; assay type: in vivo, mouse; details: nobiletin 200 mg/kg/day, Pioglitazone 30 mg/kg/day p.o.
# Method: Two weeks or 5 weeks from the beginning of the administration, the fasting blood glucose was measured (n=10). The measurement of the blood glucose level was carried out as the same as that of the example 1.
# C57BL/6J-ob/ob mice [3] = assay: Diabetes model mice: oral glucose tolerance test (OGTT); assay type: in vivo, mouse; details: nobiletin 200 mg/kg/day, Pioglitazone 30 mg/kg/day
# Method: The oral glucose tolerance test (OGTT) for the diabetes model mice (ob/ob) to which the nobiletin and others were administrated was subjected to the glucose tolerance test for studying the effects.
# From 4 weeks after the start of the administration, the mice in each group were fasted for 16 hours, and then they were administrated 2 g/kg body weight of glucose per os. After the administration of glucose, […] of blood was collected from the tail vein at the time point of 0, 30, 60 and 120 minutes. Collected blood was centrifuged at 4° C., 3,000×g, for 15 minute to obtain plasma (n=10). The blood glucose level was measured as the same as that described in the example 1.
# C57BL/6J-ob/ob mice [4] = details: nobiletin 200 mg/kg/day, Pioglitazone 30 mg/kg/day, 5 weeks
# From the text: (§6) Diabetes model mice and the experimental system were as follows. As the diabetes model mice, 7 week age of male C57BL/6J-ob/ob (hereinafter, it was referred to as “ob/ob”) were purchased from Charles River Laboratories Japan Inc., and used as 10 mice/group.
# For the negative control group (from FIGS. 5 to 10, it was shown as Vehicle; hereinafter, it is referred to as “solvent administration group”), 0.3% of CMC aqueous solution was administrated orally for 5 weeks in everyday at the dosage of 0.01 mL/g body weight. For the positive control group (in FIGS. 5 to 10 and hereinafter, it was referred to as “P30 administrated group”), 3 mg of Pioglitazone was suspended in 0.3% CMC aqueous solution so as to be orally administrated at the dosage of 0.01 mL/g body weight for 5 weeks in everyday (dosage: 30 mg/kg body weight/day). […]
# The blood insulin level was measured as described in below. […] As lipids in plasma, concentrations of neutral fat (TG) and total cholesterol (T-CHO) were measured. Plasma insulin level was measured by using rebis insulin mouse (type U) (Shibayagi Co. Ltd.) based on the enzyme-immunoassay.
# [5] = system: gluconeogenesis-related genes PEPCK, G6Pase; assay: Diabetes model mice: mRNA expression in the liver (real time RT-PCR); assay type: in vivo, mouse; details: ob/ob mice, Vehicle = 1.00, nobiletin 200 mg/kg/day, Pioglitazone 30 mg/kg/day, 5 weeks
# Method: as §1, §2, §3
# GLUT4 protein = assay: Diabetes model mice: GLUT4 protein expression level (Western blotting); assay type: in vivo, mouse; details: ob/ob mice, nobiletin 200 mg/kg/day, Pioglitazone 30 mg/kg/day
# Method: After finishing the experiment, the white adipose tissue and skeletal muscle were excised according to that described in the example 1, protein expression level of GLUT 4 were detected by using Western blotting method. The expression levels of GLUT4 protein were determined by using Na^+/K^+ ATPase α-1 protein as an internal reference.
# C57BL/6J-ob/ob mice [6] = assay type: in vivo, mouse; details: p.o. daily 5 weeks, nobiletin 200 mg/kg/day (No200), Pioglitazone 30 mg/kg/day (P30)
# From the text: as §6
# For the negative control group (from FIGS. 5 to 10, it was shown as Vehicle; hereinafter, it is referred to as “solvent administration group”), 0.3% of CMC aqueous solution was administrated orally for 5 weeks in everyday at the dosage of 0.01 mL/g body weight. For the positive control group (in FIGS. 5 to 10 and hereinafter, it was referred to as “P30 administrated group”), 3 mg of Pioglitazone was suspended in 0.3% CMC aqueous solution so as to be orally administrated at the dosage of 0.01 mL/g body weight for 5 weeks in everyday (dosage: 30 mg/kg body weight/day).
# For the sample ingestion group (in FIGS. 5 to 10 and hereinafter, it is referred to as “No200 ingestion group”), 20 mg of nobiletin purified as mentioned above (1) was suspended in 0.3% of carboxymethylcellulose (CMC) aqueous solution so as to be orally administrated at the dose of 0.01 mL/g body weight for 5 weeks in everyday (the dose: 200 mg/kg/day).
# The body weight of mice, ingestion amount, weight of the white adipose tissue and liver weight of each mice were measured as the same as described in the example 3.
# C57BL/6 male mice [7] = assay: Tangeretin, obesity-induced mice: oral glucose tolerance test (OGTT); assay type: in vivo, mouse; details: tangeretin 200 mg/kg/day p.o., HFD
# Method: The oral glucose tolerance test (OGTT) was carried out as the same as that in the example 1.
# C57BL/6 male mice [8] = assay: Tangeretin, obesity-induced mice: blood glucose in fasting state; assay type: in vivo, mouse; details: tangeretin 200 mg/kg/day p.o., HFD
# Method: The blood glucose level was measured as the same as that of the example 1. […] As mentioned above, it was shown that tangeretin has the inhibition effects of the blood glucose level in the fasting state when the high fat diet was ingested.
# C57BL/6 male mice [9] = assay: Tangeretin, obesity-induced mice: tissue weight; assay type: in vivo, mouse; details: HFD obesity-induced mice, tangeretin 200 mg/kg/day p.o. 5 weeks
# From the text: (§4) Six week age of C57BL/6 male mice were preliminary kept for 1 week (−9 to −8 week), and then classified into three groups. […] was given to one group, and HFD was given to other two groups, for 8 weeks (−8 to +5 week). From 8 weeks (15 week age) to 13 weeks, the following agents were given to each group for 5 weeks per os (hereinafter, they were referred to as LFD administration group and HFD administration group in the Example 6). The compositions of the LFD or HFD were the same as those in the Example 3.
# (§5) To the LFD administration group (n=8) and the HFD administration group (n=11), 0.3% CMC aqueous solution was given at the amount of 0.01 mL/g of the body weight. […] The schedule of the feed ingestion and the agent administration of the above-mentioned 3 groups were schematically shown in FIG. 12A.
# After the completion of the experiment, the mice in each group were dissected to excise organs and so forth to measure their weight. The white adipose tissue was excised from retroperitoneum and periphery of epididymis.
# C57BL/6 male mice [10] = assay: Tangeretin, obesity-induced mice: blood TG and T-CHO level; assay type: in vivo, mouse; details: fasting, tangeretin 200 mg/kg/day p.o., HFD
# Method: After the completion of the experiment, blood neutral fat level in fasting state was measured at the time points of beginning of the experiment, two and five weeks after the administration.
# The blood neutral fat (TG) level was measured as the same as that employed in the example 1.
# The total cholesterol (T-CHO) level in blood was measured as the same as that in the Example.
# C57BL/6 male mice [11] = assay: Tangeretin, obesity-induced mice: body weight gain and ingestion amount; assay type: in vivo, mouse; details: HFD obesity-induced C57BL/6 mice
# From the text: as §4, §5
# The ingestion amount of the mice in each group was measured twice a week. The ingestion amounts in 24 hours/3 mice/cage were measured and obtained as mean average of each group for 5 weeks.
# [12] = system: GLUT4 gene and PPARγ gene; assay: Tangeretin, obesity-induced mice: mRNA expression of GLUT4 and PPARγ (real time RT-PCR); assay type: in vivo, mouse; details: HFD = 1, tangeretin 200 mg/kg/day p.o. 5 weeks
# Method: mRNA expression level was determined by using real time PCR as follows. According to the direction attached with ISOGEN (Nippon Gene Co., Ltd), RNA was extracted from white adipose tissue, liver, and skeletal muscle. Next, cDNA was prepared from 1 μg of RNA by using Reverse Transcription System kit (Promega, USA). Subsequently, according to the direction attached with FastStart universal SYBR (Registered trademark) Greenmaster PCR kit reagent (Roche Diagnostics, Germany), primers suitable for each intended gene in the following experiments were synthesized. Real time PCR system 7700 HT (Applied Biosytems, USA) was used for the measurement, the cDNA was used as templates for the real time PCR. Reaction conditions were followed to those for the PCR kit reagents. Quantitative analysis of RNA level was performed by Comparison Ct method, using glyceraldehyde 3-phosphate dehydrogenase (GAPDH) as the standard.
# As the same as that in the Example 1, after the completion of the experiment, the white adipose tissue was excised to determine the both mRNA expression levels of GLUT4 gene mRNA and PPARγ gene by using the real time RT-PCR. Ratios of the expression levels when that of the HFD is 1 were shown in the table 18 and FIGS. 11A and 11B.
# [13] = Western blotting, Vehicle = 1.00, 5 weeks
structure (smiles),measurement,setting,value
"CCc1ccc(CCOc2ccc(CC3SC(=O)NC3=O)cc2)nc1 (stereo not shown) [Pioglitazone, reference compound]","Gene expression level (ratio), [W]Adiponectin",[1],1.58 ± 0.02
same,"Gene expression level (ratio), [W]GLUT4",[1],1.15 ± 0.02
same,"Gene expression level (ratio), [W]IL-6",[1],0.19 ± 0.12
same,"Gene expression level (ratio), [W]LPL",[1],0.93 ± 0.04
same,"Gene expression level (ratio), [W]MCP-1",[1],0.44 ± 0.10
same,"Gene expression level (ratio), [W]PPARγ",[1],1.13 ± 0.02
same,"Gene expression level (ratio), [W]Perilipin",[1],1.37 ± 0.13
same,"Gene expression level (ratio), [W]TNF-α",[1],1.08 ± 0.01
same,"Gene expression level (ratio), [W]aP2",[1],2.03 ± 0.01
same,Blood glucose level (fasting),C57BL/6J-ob/ob mice [2]; 0 week after administration,183.61 ± 16.51 mg/dL
same,Blood glucose level (fasting),C57BL/6J-ob/ob mice [2]; 2 weeks after administration,132.50 ± 7.86 mg/dL
same,Blood glucose level (fasting),C57BL/6J-ob/ob mice [2]; 5 weeks after administration,144.67 ± 8.96 mg/dL
same,Blood glucose level (OGTT),C57BL/6J-ob/ob mice [3]; 0 min after 2 g/kg glucose p.o.,144.67 ± 8.96 mg/dL
same,Blood glucose level (OGTT),C57BL/6J-ob/ob mice [3]; 30 min after 2 g/kg glucose p.o.,273.55 ± 14.15 mg/dL
same,Blood glucose level (OGTT),C57BL/6J-ob/ob mice [3]; 60 min after 2 g/kg glucose p.o.,170.60 ± 4.45 mg/dL
same,Blood glucose level (OGTT),C57BL/6J-ob/ob mice [3]; 120 min after 2 g/kg glucose p.o.,175.79 ± 18.06 mg/dL
same,"Adiponectin level in blood, times higher than solvent administration group",C57BL/6J-ob/ob mice [4],≥ 2.5 times
same,"Gene expression level (ratio), [L]G6Pase",[5],0.23 ± 0.04
same,"Gene expression level (ratio), [L]PEPCK",[5],0.57 ± 0.01
same,"Gene expression level (ratio), Skeletal muscle (GLUT4 protein)",GLUT4 protein; [13],3.15
same,"Gene expression level (ratio), White adipose tissue (GLUT4 protein)",GLUT4 protein; [13],2.24
same,"GLUT4 protein expression amount in the skeletal muscle, times higher than vehicle administration group",GLUT4 protein,~3 times
same,"GLUT4 protein expression level in the white adipose tissue, times higher than vehicle administration group",GLUT4 protein,2.2 times
same,Gained body weight,C57BL/6J-ob/ob mice [6],10.83 ± 0.58 g
same,white adipose tissue,C57BL/6J-ob/ob mice [6],5.70 ± 0.17 g
COc1ccc(-c2cc(=O)c3c(OC)c(OC)c(OC)c(OC)c3o2)cc1 [tangeretin],Blood glucose level (OGTT),C57BL/6 male mice [7]; 0 min after glucose,124.75 ± 7.14 mg/dL
same,Blood glucose level (OGTT),C57BL/6 male mice [7]; 15 min after glucose,347.43 ± 11.82 mg/dL
same,Blood glucose level (OGTT),C57BL/6 male mice [7]; 30 min after glucose,309.73 ± 17.88 mg/dL
same,Blood glucose level (OGTT),C57BL/6 male mice [7]; 60 min after glucose,274.14 ± 19.04 mg/dL
same,Blood glucose level (OGTT),C57BL/6 male mice [7]; 120 min after glucose,265.19 ± 15.82 mg/dL
same,Blood glucose level (fasting state),C57BL/6 male mice [8]; time after administration 0 (head prints min.),142.82 ± 7.03 mg/dL
same,Blood glucose level (fasting state),C57BL/6 male mice [8]; time after administration 2 (head prints min.),164.79 ± 9.82 mg/dL
same,Blood glucose level (fasting state),C57BL/6 male mice [8]; time after administration 5 (head prints min.),124.75 ± 7.14 mg/dL
same,"Tissue Weight, Kidney",C57BL/6 male mice [9],0.31 ± 0.01 g/100 g of body weight
same,"Tissue Weight, Liver",C57BL/6 male mice [9],1.48 ± 0.11 g/100 g of body weight
same,"Tissue weight, Epididymis white adipose tissue",C57BL/6 male mice [9],0.99 ± 0.12 g/100 g of body weight
same,"Tissue weight, Retroperitoneum white adipose tissue",C57BL/6 male mice [9],2.38 ± 0.09 g/100 g of body weight
same,"Tissue weight, White adipose tissue in total",C57BL/6 male mice [9],3.38 ± 0.16 g/100 g of body weight
same,Blood TG level,C57BL/6 male mice [10]; 0 weeks after administration,108.70 ± 7.75 mg/dL
same,Blood TG level,C57BL/6 male mice [10]; 2 weeks after administration,107.89 ± 9.46 mg/dL
same,Blood TG level,C57BL/6 male mice [10]; 5 weeks after administration,105.42 ± 7.54 mg/dL
same,Body weight gain,C57BL/6 male mice [11]; tangeretin 200 mg/kg/day p.o. 5 weeks (HFD+T200),3.94 ± 0.45 g
same,Ingestion amount,"C57BL/6 male mice [11]; tangeretin 200 mg/kg/day p.o., mean of 5 weeks",2.47 ± 0.24 g/day
same,"Expression level (ratio), [M]GLUT4",[12]; skeletal muscle mRNA,1.72
same,"Expression level (ratio), [W]GLUT4",[12]; white adipose tissue mRNA,0.42
same,"Expression level (ratio), [W]PPARγ",[12]; white adipose tissue mRNA,0.43
